Paper PMC3641313 (Korean Journal of Pediatrics, 2013)

Assays:
[1] = tested on: influenza virus infection; conditions: treatment initiated within 48 hours of the onset of fever; cited from earlier work
[2] = tested on: influenza; format: in vivo, pediatric patients; conditions: proven influenza patients group in the first study period and second study period

SMILES: CCOC(=O)C1=C[C@@H](OC(CC)CC)[C@H](NC(C)=O)[C@@H](N)C1 [Oseltamivir]
- average duration of fever after the initiation of oseltamivir treatment [1]: 1.7 days
- patients afebrile (<37.5℃) within one day [1]: 44%
- patients recovered within two days [1]: 86%
- admission duration, Group A compared with group B [2]: significant shorter
- frequency in pneumonia, Group A compared with group B [2]: lesser frequency
